Values after ≈ are worked out from the molar mass of the structure shown. Where two headings read alike, the source gives them in different places.
Columns and labels:
[1] = test system: Aspergillus fumigatus IAM 2034; assay: MIC, two-fold agar dilution, A. fumigatus IAM 2034; assay type: cell-based; details: IAM2034
Experimental: (§1) Minimum inhibitory concentrations (MICs) of nine 4'-N-substituted pradimicin derivatives were determined by two-fold agar dilution method on phosphate-buffered yeast morphology agar (YMA, pH 7.0, Difco Laboratories). A 5-μl of fungal cell suspension containing 2×10^6 cells/ml (2×10^7 cells/ml for Trichophyton mentagrophytes) were spotted on the surface of the agar plates containing test compound. MICs were recorded after 40-hour incubation at 28° C. except for T. mentagrophytes, which required 60-hour incubation to produce visually evaluable growth on the drug-free control plates and were defined as the lowest antibiotic concentrations showing no growth or less than five discrete colonies per spot.
(§2) Medium: yeast morphology agar + 1/15 M phosphate buffer (pH 7.0)
(§3) Incubation conditions: 28° C., 40 hours (C. albicans ATCC 38247 & T.
(§4) Medium: Yeast morphology agar + 1/15 phosphate buffer (pH 7.0).

Candida albicans 83-2-14 = assay: MIC, two-fold agar dilution, C. albicans 83-2-14; assay type: cell-based; details: 83214, YMA pH 7.0, 28° C., 40 hours
Experimental: as §1, §2, §3, §4

[2] = test system: Cryptococcus neoformans D49; assay: MIC, two-fold agar dilution, C. neoformans D49; assay type: cell-based; details: YMA pH 7.0, 28° C., 40 hours
Experimental: as §1, §2, §3, §4

[3] = test system: Trichophyton mentagrophytes #4329; assay: MIC, two-fold agar dilution, T. mentagrophytes #4329; assay type: cell-based
Experimental: as §1, §2, §3
(§5) mentagrophytes #4329: 28° C., 60 hours).
as §4

[4] = test system: Candida albicans ATCC 32354; assay: MIC, two-fold agar dilution, C. albicans ATCC 32354; assay type: cell-based; details: ATCC32354, YMA pH 7.0, 28° C., 40 hours
Experimental: as §1, §2, §3, §4

Candida albicans A9540 [5] = assay: animal or person; assay type: in vivo, male ICR mice infected with Candida albicans A9540; details: Candida albicans; for ED50: Table 2, 95% confidence limits in parentheses, read-out: PD50 (50% protection dose)
Experimental: (§6) The in vivo therapeutic efficacies of seven 4'-N-substituted pradimicin derivatives, KHM-1, KHM-2, KHM-3, KHM-4, KHM-5, KHM-6 and KHM-7 were evaluated in the mouse infected with Candida albicans A9540 and Aspergillus fumigatusIAM 2034. Groups of five specific-pathogen-free male ICR mice weighing 20-25 g at each dose level were intravenously infected with approximately 10 times the 50% lethal dose of C. albicans A9540 (1×10^6 cells/mouse) or A. fumigatus IAM 2034 (1×10^7 cells/mouse). Immediately after the fungal infection, test compounds dissolved with 10% DMSO in distilled water were intravenously given to the mouse at the dosed volume of 0.1 ml/10 g of body weight. […] Untreated control animals died 7 to 13 days post-infection.

[6] = Water solubility at neutral pH in PBS containing Ca^2+/Mg^2+; assay type: physicochemical; details: pbs with ca2+/mg2+; Table 3; water-solubility at neutral pH in phosphate buffered saline containing Ca^2+/Mg^2+
Experimental: The compounds of the invention have good water solubility. Typically, the water solubility is greater than 10 mg/ml when measured at neutral pH in PBS containing Ca^2+ /Mg^2+, preferably greater than 20 mg/ml.
^2) Water-solubility at neutral pH in phosphate buffered saline
containing Ca^2+ /Mg^2+.

[7] = test system: Candida albicans ATCC 38247; assay: MIC, two-fold agar dilution, C. albicans ATCC 38247; assay type: cell-based; details: ATCC38247, YMA pH 7.0, 28° C., 60 hours (table footnote)
Experimental: as §1, §2, §3, §5, §4

Candida tropicalis 85-8 = assay: MIC, two-fold agar dilution, C. tropicalis 85-8; assay type: cell-based; details: 858, YMA pH 7.0, 28° C., 40 hours
Experimental: as §1, §2, §3, §4

[8] = test system: Candida tropicalis IFO 10241; assay: MIC, two-fold agar dilution, C. tropicalis IFO 10241; assay type: cell-based; details: IFO10241, YMA pH 7.0, 28° C., 40 hours
Experimental: as §1, §2, §3, §4

[9] = test system: Saccharomyces cerevisiae ATCC 9763; assay: MIC, two-fold agar dilution, S. cerevisiae ATCC 9763; assay type: cell-based; details: ATCC9763, YMA pH 7.0, 28° C., 40 hours
Experimental: as §1, §2, §3, §4

[10] = test system: Cryptococcus neoformans IAM 4514; assay: MIC, two-fold agar dilution, C. neoformans IAM 4514; assay type: cell-based; details: IAM4514
Experimental: as §1, §2, §3, §4

Candida albicans A9540 [11] = assay: MIC, two-fold agar dilution, C. albicans A9540; assay type: cell-based
Experimental: as §1, §2, §3, §4

[12] = test system: Candida albicans IAM 4888; assay: MIC, two-fold agar dilution, C. albicans IAM 4888; assay type: cell-based; details: IAM4888, YMA pH 7.0, 28° C., 40 hours
Experimental: as §1, §2, §3, §4

[13] = test system: Aspergillus fumigatus IAM 2034; assay: Therapeutic efficacy in Aspergillus fumigatus systemic infection in mice; assay type: in vivo, male ICR mice infected with Aspergillus fumigatus IAM 2034; details: IAM2034, 480 h; for responders at 6.3 mg/kg: 6.3 mg/kg iv; for responders at 6.3 mg/kg / responders at 12.5 mg/kg / responders at 25 mg/kg / responders at 50 mg/kg: 20th day post-infection, read-out: S/T (No. of survivors/tested) (converted); for responders at 12.5 mg/kg: 12.5 mg/kg iv; for responders at 25 mg/kg: 25 mg/kg iv; for responders at 50 mg/kg: 50 mg/kg iv
Experimental: as §6

[14] = Aspergillus fumigatus IAM 2034, YMA pH 7.0, 28° C., 40 hours, read-out: MIC
[15] = Table 3, Aspergillus fumigatus IAM 2034, YMA, read-out: MIC Af-3
[16] = Table 3, Trichophyton mentagrophytes #4329, YMA, read-out: MIC TM-4
[17] = Trichophyton mentagrophytes #4329, YMA pH 7.0, 28° C., 60 hours, read-out: MIC
[18] = A9540, 480 h, C. albicans, mice, iv
[19] = A9540, in Mus musculus, iv, 480 h, read-out: S/T (No. of survivors/tested)
[20] = Cryptococcus neoformans IAM 4514, YMA pH 7.0, 28° C., 40 hours, read-out: MIC
[21] = Table 3, Cryptococcus neoformans IAM 4514, YMA, read-out: MIC Cn-2
[22] = Candida albicans A9540, YMA pH 7.0, 28° C., 40 hours, read-out: MIC
[23] = Table 3, Candida albicans A9540, YMA, read-out: MIC Ca-4
[24] = Aspergillus fumigatus, A. fumigatus, mice
[25] = Aspergillus fumigatus, Table 2, A. fumigatus, mice, iv, 95% confidence limits in parentheses, read-out: PD50 (50% protection dose)

Structure (SMILES) | MIC [1, 14] [µg/mL] | MIC [1, 15] [µg/mL] | MIC (Candida albicans 83-2-14) [µg/mL] | MIC [2] [µg/mL] | MIC [3, 16] [µg/mL] | MIC [3, 17] [µg/mL] | MIC [4] [µg/mL] | ED50 (Candida albicans A9540 [5]; [18]) [mg/kg] | solubility [6] [µg/mL] | MIC [7] [µg/mL] | MIC (Candida tropicalis 85-8) [µg/mL] | MIC [8] [µg/mL] | MIC [9] [µg/mL] | MIC [10, 20] [µg/mL] | MIC [10, 21] [µg/mL] | MIC (Candida albicans A9540 [11]; [22]) [µg/mL] | MIC (Candida albicans A9540 [11]; [23]) [µg/mL] | MIC [12] [µg/mL] | responders at 6.3 mg/kg [13, 24] [%] | responders at 12.5 mg/kg [13, 24] [%] | also measured
COc1cc(O)c2c(c1)C(=O)c1c(cc3c(c1O)-c1c(cc(C)c(C(=O)N[C@H](C)C(=O)O)c1O)[C@H](O[C@@H]1O[C@H](C)[C@H](NC(=N)N[N+](=O)[O-])[C@H](O[C@@H]4OC[C@@H](O)[C@H](O)[C@H]4O)[C@H]1O)[C@H]3O)C2=O [KHM-7, 4'-Nitroquanidinopradimicin C] | 3.1 (≈ 3.39 µM) | 3.1 (≈ 3.39 µM) | 6.3 (≈ 6.89 µM) | 3.1 (≈ 3.39 µM) | 3.1 (≈ 3.39 µM) | 3.1 (≈ 3.39 µM) | 3.1 (≈ 3.39 µM) | 12 | > 20000 | 1.6 (≈ 1.75 µM) | 12.5 (≈ 13.7 µM) | 12.5 (≈ 13.7 µM) | 3.1 (≈ 3.39 µM) | 1.6 (≈ 1.75 µM) | 1.6 (≈ 1.75 µM) | 3.1 (≈ 3.39 µM) | 3.1 (≈ 3.39 µM) | 3.1 (≈ 3.39 µM) | 20 | 40 | responders at 6.3 mg/kg (Candida albicans A9540 [5]; [19]): 40%; responders at 12.5 mg/kg (Candida albicans A9540 [5]; [19]): 60%; responders at 25 mg/kg (Candida albicans A9540 [5]; [19]): 60%; responders at 50 mg/kg (Candida albicans A9540 [5]; [19]): 80%; responders at 25 mg/kg [13, 24]: 0%; responders at 50 mg/kg [13, 24]: 20%; ED50 [13, 25]: > 50 mg/kg; ED50 ([13]; Table 3, Aspergillus fumigatus IAM 2034, iv, read-out: PD50 (mice) Af-3): > 50 mg/kg
CN[C@@H]1[C@H](O[C@@H]2OC[C@@H](O)[C@H](O)[C@H]2O)[C@@H](O)[C@H](O[C@H]2c3cc(C)c(C(=O)N[C@H](C)C(=O)O)c(O)c3-c3c(cc4c(c3O)C(=O)c3cc(OC)cc(O)c3C4=O)[C@@H]2O)O[C@@H]1C [Pradimicin A, reference compound] | 1.6 (≈ 1.9 µM) | 0.8 (≈ 0.951 µM) | > 100 | 1.6 (≈ 1.9 µM) | 3.1 (≈ 3.69 µM) | 3.1 (≈ 3.69 µM) | 3.1 (≈ 3.69 µM) | 10 | 20 (≈ 23.8 µM) | 3.1 (≈ 3.69 µM) | > 100 | > 100 | 6.3 (≈ 7.49 µM) | 1.6 (≈ 1.9 µM) | 1.6 (≈ 1.9 µM) | 12.5 (≈ 14.9 µM) | 12.5 (≈ 14.9 µM) | 6.3 (≈ 7.49 µM) | 0 | 20 | responders at 6.3 mg/kg (Candida albicans A9540 [5]; A9540, 480 h, C. albicans, mice, 6.3 mg/kg iv, 20th day post-infection, read-out: S/T (No. of survivors/tested) (converted)): 0%; responders at 12.5 mg/kg (Candida albicans A9540 [5]; A9540, 480 h, C. albicans, mice, 12.5 mg/kg iv, 20th day post-infection, read-out: S/T (No. of survivors/tested) (converted)): 80%; responders at 25 mg/kg (Candida albicans A9540 [5]; A9540, 480 h, C. albicans, mice, 25 mg/kg iv, 20th day post-infection, read-out: S/T (No. of survivors/tested) (converted)): 100%; responders at 50 mg/kg (Candida albicans A9540 [5]; A9540, 480 h, C. albicans, mice, 50 mg/kg iv, 20th day post-infection, read-out: S/T (No. of survivors/tested) (converted)): 100%; responders at 25 mg/kg [13, 24]: 60%; responders at 50 mg/kg [13, 24]: 100%; ED50 [13, 25]: 23 mg/kg
